Like-named read-outs stand apart in the source and are kept apart here. Peptide text beside a SMILES is read from it.

Test [1] has as its target T1, hMC4-R (Homo sapiens (Human), UniProt P32245). The experiment in a line: Competitive inhibition binding assay using [I125]-NDP-α-MSH, hMC4-R membranes. The method in brief: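 Membranes from HEK-293 cells expressing recombinant hMC1-R or hMC4-R incubated with 0.1 nM (MC1-R) or 0.2 nM (MC4-R) [I125]-NDP-α-MSH and increasing peptide concentrations in HEPES pH 7.5, 60 min at 37 °C; filtered, gamma counted.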

Test [2] addresses T2, hMC1-R (Homo sapiens (Human), UniProt Q01726). Nature of the test: Competitive inhibition binding assay, human recombinant MC1-R. The method, then:
A competitive inhibition binding assay is performed using membrane homogenates prepared from HEK-293 cells that express recombinant hMC4-R, hMC3-R, or hMC5-R, and from B-16 mouse melanoma cells (containing endogenous MC1-R). In some instances, HEK-293 cells that express recombinant hMC1-R were employed. In the examples that follow, all MC3-R, MC4-R and MC5-R values are for human recombinant receptors. […] Membrane homogenates were incubated with 0.2 nM (for hMC4-R) 0.4 nM (for MC3-R and MC5-R) or 0.1 nM (for mouse B16 MC1-R or hMC1-R) [I^125]-NDP-α-MSH (Perkin Elmer) and increasing concentrations of test peptides of the present invention in buffer containing 25 mM HEPES buffer (pH 7.5) with 100 mM NaCl, 2 mM CaCl2, 2 mM MgCl2, 0.3 mM 1,10-phenanthroline, and 0.2% bovine serum albumin. After incubation for 60 minutes at 37° C., the assay mixture was filtered and the membranes washed three times with ice-cold buffer. Filters were dried and counted in a gamma counter for bound radioactivity. […] Maximal specific binding (100%) was defined as the difference in radioactivity (cpm) bound to cell membranes in the absence and presence of 1 μM NDP-α-MSH. […] Each assay was conducted in triplicate and the actual mean values are described, with results less than 0% reported as 0%. Ki values for test peptides of the present invention were determined using Graph-Pad Prism® curve-fitting software.

Test [3] concerns the target T2, hMC1-R. The experiment in a line: Functional assay (EC50 and intrinsic activity) at hMC1-R. The test is classed as cell-based.
The target in test [4] is T1, hMC4-R. Nature of the test: Assay for agonist activity: cAMP accumulation in HEK-293 cells that express hMC4-R. Conditions: for functional status at MC4-R (agonist / partial agonist): agonist = intrinsic activity 70% or higher, partial agonist 10-70%.
Procedure: By “intrinsic activity” is meant the maximal functional activity achievable by a compound in a specified melanocortin receptor expressing cell system, such as the maximal stimulation of adenylyl cyclase.
Accumulation of intracellular cAMP was examined as a measure of the ability of the peptides of the present invention to elicit a functional response in HEK-293 cells that express MC4-R. Confluent HEK-293 cells that express recombinant hMC4-R were detached from culture plates by incubation in enzyme-free cell dissociation buffer. Dispersed cells were suspended in Earle's Balanced Salt Solution containing 10 mM HEPES (pH 7.5), 1 mM MgCl2, 1 mM glutamine, 0.5% albumin and 0.3 mM 3-isobutyl-1-methyl-xanthine (IBMX), a phosphodiesterase inhibitor. […] Cells were exposed for 15 minutes at 37° C. to peptides of the present invention dissolved in DMSO (final DMSO concentration of 1%) at a concentration range of 0.05-5000 nM in a total assay volume of 200 μL. […] Data analysis was performed by nonlinear regression analysis with Graph-Pad Prism® software. The maximum efficacies of the test peptides of the present invention were compared to that achieved by the reference melanocortin agonist NDP-αMSH.
The target of test [5] is T1, hMC4-R. Nature of the test: Competitive binding assay using Eu-NDP-α-MSH (TRF), hMC4-R membranes. Conditions: averaged; Eu-NDP-α-MSH (values marked *); read-out: MC4-R Ki. The method, then:
Alternatively, a competitive inhibition binding assay was performed employing Eu-NDP-α-MSH (PerkinElmer Life Sciences catalog No. AD0225) with determination by time-resolved fluorometry (TRF) of the lanthanide chelate. […] After incubation for 90 minutes at 37° C., the reaction was stopped by filtration over AcroWell 96-well filter plates (Pall Life Sciences). The filter plates were washed 4 times with 200 μL of ice-cold phosphate-buffered saline. DELFIA Enhancement solution (PerkinElmer Life Sciences) was added to each well. […] Each assay was conducted in duplicate and mean values were utilized. Ki values were determined by curve-fitting with Graph-Pad Prism® software using a one-site fixed-slope competition binding model.

Test [6] addresses MC1-R (B-16 mouse melanoma cells) (Mus musculus (Mouse), UniProt Q01727). The experiment in a line: Competitive binding using Eu-labeled NDP-α-MSH, MC1-R. The method, then:
A competitive inhibition binding assay is performed using membrane homogenates prepared from HEK-293 cells that express recombinant hMC4-R, hMC3-R, or hMC5-R, and from B-16 mouse melanoma cells (containing endogenous MC1-R). In some instances, HEK-293 cells that express recombinant hMC1-R were employed. In the examples that follow, all MC3-R, MC4-R and MC5-R values are for human recombinant receptors. MC1-R values are for B-16 mouse melanoma cells, unless the heading is “hMC1-R”, in which case the value is for human recombinant MC1-R. Assays were performed in 96 well GF/B Millipore multiscreen filtration plates (MAFB NOB10) pre-coated with 0.5% bovine serum albumin (Fraction V). Membrane homogenates were incubated with 0.2 nM (for hMC4-R) 0.4 nM (for MC3-R and MC5-R) or 0.1 nM (for mouse B16 MC1-R or hMC1-R) [I^125]-NDP-α-MSH (Perkin Elmer) and increasing concentrations of test peptides of the present invention in buffer containing 25 mM HEPES buffer (pH 7.5) with 100 mM NaCl, 2 mM CaCl2, 2 mM MgCl2, 0.3 mM 1,10-phenanthroline, and 0.2% bovine serum albumin. After incubation for 60 minutes at 37° C., the assay mixture was filtered and the membranes washed three times with ice-cold buffer. Filters were dried and counted in a gamma counter for bound radioactivity. […] Maximal specific binding (100%) was defined as the difference in radioactivity (cpm) bound to cell membranes in the absence and presence of 1 μM NDP-α-MSH. […] Ki values for test peptides of the present invention were determined using Graph-Pad Prism® curve-fitting software.
Alternatively, a competitive inhibition binding assay was performed employing Eu-NDP-α-MSH (PerkinElmer Life Sciences catalog No. AD0225) with determination by time-resolved fluorometry (TRF) of the lanthanide chelate. […] The plates were incubated on a shaker for 15 minutes and read at 340 nm excitation and 615 nm emission wavelengths. […] Ki values were determined by curve-fitting with Graph-Pad Prism® software using a one-site fixed-slope competition binding model.

For test [7], the target named is hMC3-R (Homo sapiens (Human), UniProt P41968). Nature of the test: Competitive binding using Eu-labeled NDP-α-MSH, MC3-R. On the procedure: A competitive inhibition binding assay is performed using membrane homogenates prepared from HEK-293 cells that express recombinant hMC4-R, hMC3-R, or hMC5-R, and from B-16 mouse melanoma cells (containing endogenous MC1-R). In some instances, HEK-293 cells that express recombinant hMC1-R were employed. In the examples that follow, all MC3-R, MC4-R and MC5-R values are for human recombinant receptors. MC1-R values are for B-16 mouse melanoma cells, unless the heading is “hMC1-R”, in which case the value is for human recombinant MC1-R. Assays were performed in 96 well GF/B Millipore multiscreen filtration plates (MAFB NOB10) pre-coated with 0.5% bovine serum albumin (Fraction V). […] Filters were dried and counted in a gamma counter for bound radioactivity. […] Maximal specific binding (100%) was defined as the difference in radioactivity (cpm) bound to cell membranes in the absence and presence of 1 μM NDP-α-MSH. […] Ki values for test peptides of the present invention were determined using Graph-Pad Prism® curve-fitting software.
Alternatively, a competitive inhibition binding assay was performed employing Eu-NDP-α-MSH (PerkinElmer Life Sciences catalog No. AD0225) with determination by time-resolved fluorometry (TRF) of the lanthanide chelate. […] The plates were incubated on a shaker for 15 minutes and read at 340 nm excitation and 615 nm emission wavelengths. […]

Test [8] deals with Male Sprague-Dawley rats. The experiment in a line: Rat feeding studies: food intake and body weight change. The test is classed as in vivo. Conditions: for decrease in food consumption compared to control: rats. On the procedure:
Change in food intake and body weight was evaluated for selected peptides administered by intravenous (IV) or subcutaneous injection routes. Male Sprague-Dawley rats were obtained from Hilltop Lab Animals, Inc. (Scottsdale, Pa.) or other vendors. Animals were individually housed in conventional polystyrene hanging cages and maintained on a controlled 12 hour on/off light cycle. Water and pelleted food was provided ad libitum. The rats were dosed IV with vehicle or selected peptides (0.3 to 1.0 mg/kg), or dosed subcutaneously with vehicle or selected peptides (doses up to 30 mg/kg). […] The changes in body weight and food intake for the 48 hour and 72 hour periods after dosing can also be measured to determine reversal of changes in body weight and food intake effects back to baseline levels.

The mark [9] stands for this setting: averaged, [I125]-NDP-α-MSH (values not marked *), read-out: MC4-R Ki.

T2 sequence (Q01726 whole entry): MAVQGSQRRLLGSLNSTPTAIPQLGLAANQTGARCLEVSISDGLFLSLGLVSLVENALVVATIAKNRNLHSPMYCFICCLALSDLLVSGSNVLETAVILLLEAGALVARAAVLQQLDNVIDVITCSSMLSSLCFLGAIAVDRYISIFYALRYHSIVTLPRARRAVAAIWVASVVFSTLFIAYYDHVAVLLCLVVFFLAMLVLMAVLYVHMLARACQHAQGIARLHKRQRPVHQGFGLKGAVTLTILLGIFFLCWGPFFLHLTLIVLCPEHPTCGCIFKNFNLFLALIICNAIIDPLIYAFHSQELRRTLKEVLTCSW
T1 sequence (P32245 whole entry): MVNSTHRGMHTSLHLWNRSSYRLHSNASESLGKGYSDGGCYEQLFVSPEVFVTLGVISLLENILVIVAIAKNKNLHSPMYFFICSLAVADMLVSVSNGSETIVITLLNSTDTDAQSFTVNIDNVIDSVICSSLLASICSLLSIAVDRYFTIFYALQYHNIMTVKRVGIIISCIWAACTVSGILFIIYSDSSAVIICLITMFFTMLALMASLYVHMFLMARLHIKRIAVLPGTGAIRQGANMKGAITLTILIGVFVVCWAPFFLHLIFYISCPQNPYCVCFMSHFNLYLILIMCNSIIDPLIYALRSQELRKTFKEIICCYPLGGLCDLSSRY
MC1-R (B-16 mouse melanoma cells), sequence (Q01727 whole entry): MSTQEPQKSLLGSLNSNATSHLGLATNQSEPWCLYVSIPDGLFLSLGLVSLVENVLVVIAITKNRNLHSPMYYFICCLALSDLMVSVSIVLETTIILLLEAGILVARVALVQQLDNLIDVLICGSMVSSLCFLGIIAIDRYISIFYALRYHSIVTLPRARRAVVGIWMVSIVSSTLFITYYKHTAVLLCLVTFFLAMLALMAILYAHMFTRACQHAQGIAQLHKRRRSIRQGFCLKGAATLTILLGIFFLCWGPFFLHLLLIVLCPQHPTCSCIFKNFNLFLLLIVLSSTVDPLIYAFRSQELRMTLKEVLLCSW
hMC3-R, sequence (P41968 whole entry): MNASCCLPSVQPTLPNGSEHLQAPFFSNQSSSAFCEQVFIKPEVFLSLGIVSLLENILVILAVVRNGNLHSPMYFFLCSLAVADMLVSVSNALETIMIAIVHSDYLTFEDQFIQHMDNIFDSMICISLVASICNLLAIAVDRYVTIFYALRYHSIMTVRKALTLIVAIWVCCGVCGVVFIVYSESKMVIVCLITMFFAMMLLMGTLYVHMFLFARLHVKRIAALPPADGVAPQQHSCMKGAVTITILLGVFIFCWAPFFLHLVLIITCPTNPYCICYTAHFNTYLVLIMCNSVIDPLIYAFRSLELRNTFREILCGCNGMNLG

For `CC(=O)N[C@@H](CCCNC(=N)N)C(=O)N[C@H]1CCNC(=O)CCC[C@@H](C(N)=O)NC(=O)[C@H](Cc2c[nH]c3ccccc23)NC(=O)[C@H](CCCNC(=N)N)NC(=O)[C@@H](Cc2ccccc2)NC(=O)[C@H](CCC(N)=O)NC1=O` [compound 159, Ac-Arg-cyclo(Dab-Gln- D-Phe-Arg-Trp-hGlu)- NH2], the Ki came to 4 nM in test [1] (setting [9]), 4 nM in test [1] (read-out: hMC4-R (Ki)) and 133 nM in test [2]. For the same compound, the values for the EC50 in test [3] and in test [4] were 26 nM and 0.825 nM, respectively.
With `CC(=O)N[C@@H](CCCNC(=N)N)C(=O)N[C@H]1CCNC(=O)CCC[C@@H](C(N)=O)NC(=O)[C@H](Cc2c[nH]c3ccccc23)NC(=O)[C@H](CCCNC(=N)N)NC(=O)[C@@H](Cc2ccccc2)NC(=O)[C@H](CCN)NC1=O` [compound 129, Ac-Arg-cyclo(Dab-Dab- D-Phe-Arg-Trp-hGlu)- NH2], in test [5], the Ki worked out at 4 nM. Moreover, in test [4], a half-maximal response (EC50) required 0.065 nM and the “functional status at MC4-R (agonist / partial agonist)” value is recorded as “agonist”.
Take `CC(=O)N[C@@H](CCCNC(=N)N)C(=O)N[C@H]1CCC(=O)NCCC[C@@H](C(N)=O)NC(=O)[C@H](Cc2c[nH]c3ccccc23)NC(=O)[C@H](CCCNC(=N)N)NC(=O)[C@@H](Cc2ccccc2)NC(=O)[C@H](CC(N)=O)NC1=O` [compound 161, Ac-Arg-cyclo(Glu-Asn- D-Phe-Arg-Trp-Orn)- NH2]: in test [2], the Ki was 155 nM. Besides, the EC50 in test [3] turned out to be 13 nM; in test [4] (read-out: hMC4-R EC50) it was 0.413 nM.
For `CC(=O)N[C@@H](CCCNC(=N)N)C(=O)N[C@H]1CCCC(=O)NCC[C@@H](C(N)=O)NC(=O)[C@H](Cc2c[nH]c3ccccc23)NC(=O)[C@H](CCCNC(=N)N)NC(=O)[C@@H](Cc2ccccc2)NC(=O)[C@H](CCN)NC1=O` [compound 127, Ac-Arg-cyclo(hGlu-Dab- D-Phe-Arg-Trp-Dab)- NH2], the Ki in test [5] came to 2 nM. In test [4], a half-maximal effect (EC50) was put at 0.06 nM and the “functional status at MC4-R (agonist / partial agonist)” value is “agonist”.
On to `CC(=O)N[C@@H](CCCNC(=N)N)C(=O)N[C@H]1CCCCNC(=O)C[C@@H](C(N)=O)NC(=O)[C@H](Cc2ccc3ccccc3c2)NC(=O)[C@H](CCCNC(=N)N)NC(=O)[C@@H](Cc2ccccc2)NC(=O)[C@H](CC(N)=O)NC1=O` [compound 162, Ac-Arg-cyclo(Lys-Asn- D-Phe-Arg-Nal 2-Asp)- NH2] (HELM PEPTIDE1{[ac].R.K.N.[dF].R.[O=C([C@H](Cc1ccc2ccccc2c1)N[*:1])[*:2]].D.[am]}$PEPTIDE1,PEPTIDE1,3:R3-8:R3$$$V2.0), for which the Ki was found to be 5 nM in test [1] (setting [9]), 5 nM in test [1] (read-out: hMC4-R (Ki)) and 255 nM in test [2]. The EC50 in test [3] turned out to be 22 nM; in test [4], 0.85 nM.
Consider `CC(=O)N[C@@H](CCCNC(=N)N)C(=O)N[C@H]1CCCC(=O)NCC[C@@H](C(N)=O)NC(=O)[C@H](Cc2c[nH]c3ccccc23)NC(=O)[C@H](CCCNC(=N)N)NC(=O)[C@@H](Cc2ccccc2)NC(=O)[C@H](CC(N)=O)NC1=O` [compound 160, Ac-Arg-cyclo(hGlu-Asn- D-Phe-Arg-Trp-Dab)- NH2] (HELM PEPTIDE1{[ac].R.[O=C([C@H](CCCC(=O)[*:3])N[*:1])[*:2]].N.[dF].R.W.[Dab].[am]}$PEPTIDE1,PEPTIDE1,3:R3-8:R3$$$V2.0), for which the values for the Ki in test [1] (setting [9]), in test [1] (read-out: hMC4-R (Ki)) and in test [2] were 8 nM, 8 nM and 295 nM, respectively. In test [4], this compound had an EC50 of 0.245 nM.
As for `CC(=O)N[C@H](CCCNC(=N)N)C(=O)N[C@H]1CCCNC(=O)CC[C@@H](C(N)=O)NC(=O)[C@H](Cc2c[nH]c3ccccc23)NC(=O)[C@H](CCCNC(=N)N)NC(=O)[C@@H](Cc2ccccc2)NC(=O)[C@H](CC(N)=O)NC1=O` [compound 156, Ac-D-Arg-cyclo(Orn- Asn-D-Phe-Arg-Trp- Glu)-NH2], the Ki in test [2] worked out at 840 nM. The compound also registered an EC50 in test [3] of 80 nM.
On to `CC(=O)N[C@@H](CCCNC(=N)N)C(=O)N[C@H]1CC(=O)NCCCC[C@@H](C(N)=O)NC(=O)[C@H](Cc2c[nH]c3ccccc23)NC(=O)[C@H](CCCNC(=N)N)NC(=O)[C@@H](Cc2ccccc2)NC(=O)[C@H](C(C)C)NC1=O` [Peptide No. 16, Ac-Arg-cyclo(Asp-Val- D-Phe-Arg-Trp-Lys)- NH2], for which the values for the inhibitory constant (Ki) in test [6] and in test [7] were 323 nM and 1050 nM, respectively. Further, the “food intake and rate of change in body weight” value in test [8] (rat feeding studies, bremelanotide as positive control) is “reduce food intake and decrease the rate of change in body weight”. Also, the “decrease in food consumption compared to control” value in test [8] (0.3 mg/kg, 0-2 and 0-4 hour periods) is recorded as “statistically significant”; in test [8] (1 mg/kg, 0-2, 0-4 and 0-20 hour periods), “statistically significant”. In addition, the “functional status at MC4-R (agonist / partial agonist)” value in test [4] was “partial agonist”.

Source of the values: patent publication US8846601B2, “Melanocortin receptor-specific peptides” (Palatin Technologies, Inc., priority 2009, dated 2014).
